Experimental data as given in US20240058387A1, “CULTURE MEDIUM COMPOSITION FOR AMPLIFYING AND MAINTAINING SELF-RENEWAL CAPACITY AND DIFFERENTIATION POTENTIAL OF HSCS AND APPLICATION THEREOF” (EDIGENE (GUANGZHOU) INC., priority 2020, published 2024).

Legend:
[1] = system: umbilical cord blood-derived CD34+ cells; experiment: Cell counting: total cell number and absolute number of marker-positive cells after small molecule induction; assay type: cell-based, human; settings: 6 days
Procedure: According to the solubility and required solvent indicated in the instructions of the small molecule inhibitor (see Table 1 for the Cat. number of the small molecule inhibitor), the preparation of the small molecule inhibitor stock solution was carried out. Next, the hematopoietic stem cell medium was prepared: SFEM II medium (stem cell, Cat. number: 09655)+50 ng/ml growth factor Flt-3L (PeProtech, Cat. number: 300-100UG)+50 ng/ml growth factor SCF (PeProtech, Cat. number): 300-07-100UG)+50 ng/ml growth factor TPO (PeProtech, Cat. number: 300-18-100UG)+10 ng/ml interleukin IL-6 (PeProtech, Cat. number: 200-06-20UG)+1% bispecific antibody (HyClone, Cat. No.: sv30010). According to the set concentration gradient of the small molecule inhibitor, the stock solution and the basal medium were used to prepare the medium containing different concentrations of the small molecule inhibitor.
First, the prepared medium was added to a 24-well plate (Corning, Cat. number: 3473), 950 μl per well, and placing it in a carbon dioxide incubator (Thermo, model: 3111) to preheat; resuspending the spare umbilical cord Blood-derived HSCs of Example 1 with SFEM 11+50 ng/ml Flt-3L+50 ng/ml SCF+50 ng/ml TPO+10 ng/ml IL-6+1% bispecific antibody, calculating the medium volume to be added according to 50 μl cell suspension per well and 2*10^5/m1 cell density per well. For example, when the final volume of the cell culture solution per well was 1 ml, the total number of cells per well was 2*10^5 cells calculated according to the cell density per well, and the density of the […] of cell suspension supplemented to each well is 4*10^6/ml. The density of the spare HSCs of Example 1 was adjusted to the calculated density of the cell suspension, and adding it; taking out the preheated medium from the incubator, adding 50 μl of the cell suspension to each well, and after mixing, using the microscope (OLYMPUS, model: CKX53) to observe the cells state, and then putting it into an incubator for culturing.
On the umbilical cord blood-derived CD34+ cells sorted in Example 1, the optimal concentration of the screened-out inhibitor AG1296 was screened in the same way as in Example 2. After 6 days of induction with different concentrations of the small molecule inhibitor AG1296, the expression of LT-HSCs cell surface markers (CD34+CD45+CD90+CD45RA−CD38−) was detected by flow cytometry using the same method as in Example 3. 20 μL of cell suspension was taken to count in a cell counter (Nexcelom, model: Cellometer K2) on the 6th day of culture, calculating the absolute number of the final CD34+ cells and LT-HSCs on the 6th day (absolute number of cells=total number of cells*sternness ratio). The results were shown in FIGS. 3A-3B and FIGS. 4A-4B, respectively.

[2] = system: umbilical cord blood-derived CD34+ cells; experiment: In vivo transplantation of in vitro cultured CD34+ cells into irradiated immunodeficient NPG mice; settings: FIG. 8A, cells cultured with 1 μM AG1296 (SR1 5 μM), week 18 after transplantation
Procedure: On the umbilical cord blood-derived CD34+ cells sorted in Example 1, the effects of the screened small molecule inhibitor AG1296 and the inhibitor SR1 reported in the literature on the in vivo hematopoietic system reconstitution ability was compared.
Preparation of cell medium: SFEM II+100 ng/ml Flt-3L+100 ng/ml SCF+100 ng/ml TPO+20 ng/ml IL-6+1% bispecific antibody. Cat. numbers of the medium, growth factor, bispecific antibody, etc. were as described in Example 2. According to the groups set in Table 4, different small molecule inhibitors were added.
The prepared cell medium was added to a 24-well plate, 950 μl per well, and placing it in a carbon dioxide incubator to preheat; using SFEMII+100 ng/ml Flt-3L+100 ng/ml SCF+100 ng/ml TPO+20 ng/ml IL-6+1% bispecific antibody to resuspend the spare umbilical cord blood-derived HSCs of Example 1. The medium volume required to resuspend the cells was calculated according to 50 μl of cell suspension was added to each well, and 0.28*10^5/ml cell density per well was; taking out the preheated medium from the incubator, adding 50 μl of resuspended cell suspension to each well, mixing well, observing the cell state under a microscope, and then putting them into the incubator for culture. […]
The proportions of human CD45, human CD19, human CD3, human CD33 and human CD56 in mouse bone marrow cells were detected by flow cytometry. […]

[3] = FIG. 3B, 1 μM, 5 μM and 10 μM, vs Mock

COc1cc2ncc(-c3ccccc3)nc2cc1OC [AG1296]
total cell number ([1]; FIG. 3B, 1 μM vs 5 μM and 10 μM): higher cell numbers than that at concentrations of 5 μM and 10 μM
absolute number of proliferating LT-HSCs ([1]; FIG. 3B, 1 μM, 5 μM and 10 μM): better effect
effect on cell proliferation ([1]; FIG. 3B, 1 μM, 5 μM and 10 μM): slightly inhibited cell proliferation
absolute number of CD34+CD90+CD45RA- cells [1, 3]: significantly better than the Mock group
absolute numbers of CD34+ cells [1, 3]: lower than that in the mock group
absolute number of proliferating LT-HSCs relative to other groups ([1]; FIG. 4B, 1 μM): 1-2 times
effect on cell proliferation ([1]; FIG. 4B, 1 μM): slightly inhibited cell proliferation
absolute number of CD34+ cells ([1]; FIG. 4B, 1 μM, vs Mock, 100 nM, 500 nM groups): not significantly better than other groups
absolute number of CD34+CD90+, and CD34+CD90+CD45RA- cells ([1]; FIG. 4B, 1 μM, vs other groups): significantly better than other groups
bone marrow transplantation efficiency (proportion of human CD45+ cells in mouse bone marrow cells) [2]: significantly higher than that of the Mock group and the SR1 group
